Results published in ChEMBL document CHEMBL5247619, “Novel alpha6 preferring GABA-A receptor ligands based on loreclezole” (Eur J Med Chem, 2022).

Legend:
[1] = biological target: Gamma-aminobutyric acid receptor subunit alpha-6/beta-3/gamma-2 (Rattus norvegicus, UniProt P18508+P30191+P63079); test: Modulation of rat alpha6beta3gamma2 GABA A receptor expressed in Xenopus oocytes assessed as reduction in desensitization at -80 mV holding potential by two-electrode voltage-clamp assay; format: cell-based
Chain of Gamma-aminobutyric acid receptor subunit alpha-6/beta-3/gamma-2 (P18508 whole entry): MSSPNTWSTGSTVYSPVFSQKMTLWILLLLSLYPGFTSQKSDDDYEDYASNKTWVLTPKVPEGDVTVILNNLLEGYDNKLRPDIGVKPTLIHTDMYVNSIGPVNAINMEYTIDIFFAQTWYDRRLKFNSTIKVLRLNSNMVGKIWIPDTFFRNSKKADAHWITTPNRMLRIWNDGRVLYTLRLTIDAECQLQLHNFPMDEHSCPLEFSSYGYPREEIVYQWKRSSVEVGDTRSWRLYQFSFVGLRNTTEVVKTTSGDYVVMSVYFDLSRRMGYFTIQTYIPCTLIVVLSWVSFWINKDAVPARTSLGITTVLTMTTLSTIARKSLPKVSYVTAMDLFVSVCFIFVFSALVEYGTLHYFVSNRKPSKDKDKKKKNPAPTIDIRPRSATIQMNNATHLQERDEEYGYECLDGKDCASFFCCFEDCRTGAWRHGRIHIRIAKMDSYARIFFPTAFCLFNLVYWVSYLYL
Chain of Gamma-aminobutyric acid receptor subunit alpha-6/beta-3/gamma-2 (P30191 whole entry): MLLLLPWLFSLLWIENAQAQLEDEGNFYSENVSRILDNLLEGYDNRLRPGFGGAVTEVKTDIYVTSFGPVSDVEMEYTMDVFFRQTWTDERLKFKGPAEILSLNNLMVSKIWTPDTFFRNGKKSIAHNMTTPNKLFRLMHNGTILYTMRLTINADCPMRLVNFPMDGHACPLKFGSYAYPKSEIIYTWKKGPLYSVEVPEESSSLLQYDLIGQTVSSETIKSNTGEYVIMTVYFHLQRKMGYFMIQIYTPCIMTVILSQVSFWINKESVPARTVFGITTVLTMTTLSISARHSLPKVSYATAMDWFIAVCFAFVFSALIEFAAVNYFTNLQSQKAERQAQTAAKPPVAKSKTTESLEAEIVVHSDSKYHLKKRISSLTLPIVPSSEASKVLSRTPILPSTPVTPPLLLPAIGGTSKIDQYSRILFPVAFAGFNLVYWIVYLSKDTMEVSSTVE
Chain of Gamma-aminobutyric acid receptor subunit alpha-6/beta-3/gamma-2 (P63079 whole entry): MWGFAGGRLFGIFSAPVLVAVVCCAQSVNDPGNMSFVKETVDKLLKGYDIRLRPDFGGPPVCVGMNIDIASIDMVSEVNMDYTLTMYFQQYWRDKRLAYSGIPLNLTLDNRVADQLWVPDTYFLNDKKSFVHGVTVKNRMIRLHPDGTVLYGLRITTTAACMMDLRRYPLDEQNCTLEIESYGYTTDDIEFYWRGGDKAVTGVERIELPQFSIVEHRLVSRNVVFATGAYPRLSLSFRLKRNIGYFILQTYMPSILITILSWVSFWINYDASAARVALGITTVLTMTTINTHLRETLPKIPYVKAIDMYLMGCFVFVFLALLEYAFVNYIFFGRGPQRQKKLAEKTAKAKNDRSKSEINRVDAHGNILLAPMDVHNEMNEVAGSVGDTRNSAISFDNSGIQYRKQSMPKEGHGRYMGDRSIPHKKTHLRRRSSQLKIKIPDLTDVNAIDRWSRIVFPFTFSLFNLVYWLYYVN

[2] = biological target: Gamma-aminobutyric acid receptor subunit alpha-6/beta-3/gamma-2 (Rattus norvegicus) (UniProt P18508+P30191+P63079); test: Modulation of rat alpha6beta3gamma2 GABA A receptor expressed in Xenopus oocytes assessed as desensitization of GABA current at -80 mV holding potential at more than 300 uM by two-electrode voltage-clamp assay relative to control; format: cell-based; settings: filed as modulator

## Cc1ccc(C(C)(C)CC#N)c(Cl)c1
[1]
  EC50: 28 µM
[2]
  Activity: 1360%

## Cc1ccc(C(C)CC#N)c(Cl)c1 (racemic)
[1]
  EC50: 38 µM
[2]
  Activity: 600%

## Cl/C(=C\n1cncn1)c1ccc(Cl)cc1Cl [LORECLEZOLE]
[1]
  EC50: 38 µM
[2]
  Activity: 600%
